{
  "source": "paper PMC8320996",
  "about": "“Negative regulation of melatonin secretion by melatonin receptors in ovine pinealocytes” (PLoS ONE, 2021)",
  "target": "T1, MT1",
  "T1 construct": "gene MTNR1A; native receptors in primary ovine pinealocytes (MT1 and MT2 not resolved)",
  "experiment": "saturation radioligand binding on primary ovine pinealocytes, Scatchard analysis",
  "assay_type": "cell-based, Ovis aries",
  "data": [
    {"smiles": "COc1ccc2[nH]c(I)c(CCNC(C)=O)c2c1", "note": "[2-[^125I]-MLT]", "values": [
      {"measurement": "Kd", "value": "2.24 ± 1.1", "unit": "nM"}
    ]}
  ]
}
